{"source": "patent US20170137458A1", "about": "“OXYSTEROLS FOR USE IN THE TREATMENT AND PREVENTION OF DISEASES CAUSED BY VIRUSES” (priority 2014, published 2017)", "key": {"rotavirus": {"system": "rotavirus", "test": "Assay on adhesion of the rotavirus to the cell surface", "format": "cell-based", "conditions": "MA104 cells, 5.6 μM for 20 hours, MOI 3", "protocol": "For the assays on bonding of the rotavirus to the surface of MA104 cells, monolayers of confluent cells in plates with 24 wells were treated at 37° C. with 25- or 27-hydroxycholesterol at 1.9 μM and 5.6 μM for 20 hours. The cells were then washed and cooled on ice for 20 minutes. The infectivity of the virus was activated with 5 μg of porcine trypsin (Sigma)/ml for 30 minutes at 37° C. The activated virus, which had been cooled to 4° C., was left to adhere to the cells in ice for 1 hour at an MOI of 3. Lastly, the cells were washed with cold MEM; cold MEM was then added to the cells, which underwent two freezing-thawing cycles, in order to allow detachment of the viral particles bonded to the cell surface; the cell lysate was incubated at 37° C. for 30 minutes in the presence of […] of porcine trypsin/ml, subsequently clarified by means of centrifugation (1200 rpm, 10 minutes).\nThe titre of the virus population bound to the cells was determined by means of indirect immunocytochemistry performed on monolayers of MA104 cells infected with serial dilutions of the virus collected. The results are illustrated by FIG. 9; in the graph, the titre of the viral population bound to the surface of the treated cells is expressed in percentage terms with respect to the non-treated control and the error bars represent the standard deviation. […]"}, "human rotavirus WI61": {"system": "human rotavirus WI61", "test": "Infectivity assay for rotavirus, MA104 cells, strain WI61", "procedure": "(§1) The strains of human rotavirus Wa (ATCC® VR-2018), WI61 (ATCC® VR-2551), HRV 408 (ATCC® VR-2273), HRV 248 (ATCC® VR-2274) and DS-1 (ATCC® VR-2550) were acquired from the American Tissue Culture Collection (ATCC); the viruses were activated with 5 μg/ml porcine pancreatic trypsin of type IX (Sigma, St. Louis, Mo.) for 30 minutes at 37° C. and propagated in MA104 cells using MEM containing 0.5 μg of trypsin per ml as described previously (27).\n(§2) The antiviral effectiveness of the oxysterols of the invention was determined by means of infectivity inhibition assay. The assays were performed with confluent monolayers of MA104 cells seeded in plates with 96 wells, as described previously (28). […] The control samples were prepared by treating the cells with culture medium with the addition of equal volumes of ethanol. The cells were then washed with medium, and the rotavirus infection was performed at a multiplicity of infection (MOI) of 0.02. After the infection, the cells were washed with medium and incubated at 37° C. in an incubator humidified at 5% (vol/vol) CO2-95% (vol/vol) of air. After 16 hours, the infected cells were fixed with a cold acetone-methanol mixture (50:50), and the virus titres were determined by means of indirect immunocytochemistry. The inhibition of the virus infectivity was expressed as a percentage comparing the mean number of infective events in the treated and non-treated samples±the standard deviations. Where possible, the values of the oxysterol concentrations able to determine 50% or 90% of the antiviral effect (EC50 and EC90 respectively) were calculated by means of regression analysis using the dose-response curves generated by the experimental data, with the use of PRISM 5.00 (GraphPad Software, San Diego, Calif., USA)."}, "TLR3": {"system": "TLR3", "test": "Quantitative real time RT-PCR of TLR-3 in Caco2 cells", "format": "cell-based, human", "conditions": "CaCo2 intestinal cells, 1.9 μM, 30 minutes to 6 hours", "protocol": "The Caco2 cells were cultivated in DMEM medium containing 10% serum and seeded in 25 cm^2 flasks (8 million confluence cells). The next day the cells were treated, in DMEM medium containing 2% serum, with 1.9 μM 25OHC or 27OHC (dissolved in ethanol) for 30 minutes, 1, 2, 3, 4, 5 or 6 hours. Extraction of the total RNA was performed using the TRIzol Reagent (Applied Biosystems, Monza, Italy) and the quantity and purity (A260/A280 ratio) of the extracted RNA were spectrophotometrically measured. Subsequently, 2 μg of RNA were retrotranscribed using the High-Capacity cDNA Reverse Transcription Kit (Applied Biosystems). Quantitative RT-PCR was performed with 30 ng of cDNA using the “TaqMan Gene Expression Assay kits” for TLR-3 and β-actin, TaqMan Fast Universal PCR Master Mix, and 7500 Fast Real-Time PCR System (Applied Biosystems). For each gene considered, the threshold cycle (Ct) was determined and the results were normalized using β-actin as a reference gene. The relative quantification was performed using a mathematical method previously published (29). In FIGS. 1a-1b, the results are reported as increment of the genic expression (Fold change, Fc) of the treated samples with respect to the controls."}, "human rhinovirus 1A": {"system": "human rhinovirus 1A", "test": "Rhinovirus yield reduction assay", "conditions": "HeLa cells, 5.6 μM after infection, collected 5 days after the infection", "procedure": "Each well was inoculated with 200 μl of a stock of human rhinovirus 1A containing approximately 30 PFU per well and incubated for 1 hour. […] The infected cells and the supernatants were collected 5 days after the infection (when a complete CPE was visible), and titred by means of the standard plaque method, as described above."}, "human rotavirus HRV 248": {"system": "human rotavirus HRV 248", "test": "Infectivity assay for rotavirus, MA104 cells, strain HRV 248", "procedure": "as §1, §2"}, "human rotavirus Wa": {"system": "human rotavirus Wa", "test": "Infectivity assay for rotavirus, MA104 cells, strain Wa", "procedure": "as §1, §2"}}}
{"smiles": "C[C@H](CCCC(C)(C)O)[C@H]1CC[C@H]2[C@@H]3CC=C4C[C@@H](O)CC[C@]4(C)[C@H]3CC[C@]12C", "note": "[25OHC, 25-hydroxycholesterol]", "values": [{"measurement": "titre of the viral population bound to the cell surface", "setting": "rotavirus", "result": "reduce in a statistically significant manner (p<0.05) the ability of the virus to adhere to the cell surface"}, {"measurement": "EC50", "setting": "human rotavirus WI61", "result": 90, "unit": "nM"}, {"measurement": "EC90", "setting": "human rotavirus WI61", "result": 280, "unit": "nM"}, {"measurement": "TLR3 expression", "setting": "TLR3", "result": "marked hyperexpression of TLR3"}, {"measurement": "production of viral progenies", "setting": "human rhinovirus 1A", "result": "totally inhibit the production of viral progenies"}, {"measurement": "EC50", "setting": "human rotavirus HRV 248", "result": 110, "unit": "nM"}, {"measurement": "EC90", "setting": "human rotavirus HRV 248", "result": 1260, "unit": "nM"}, {"measurement": "EC50", "setting": "human rotavirus Wa", "result": 160, "unit": "nM"}, {"measurement": "EC90", "setting": "human rotavirus Wa", "result": 1370, "unit": "nM"}]}
